Assay results as given in ChEMBL document CHEMBL1126351, “()-7-deazacarbovir as a compound with potential anti-hiv and anti-hcmv properties” (Bioorg Med Chem Lett, 1992).
pEC50, pIC50: −log10 of the molar value.

System: HFF
Assay: Compound was evaluated for CPE inhibition using anti-HCMV assay in AD169 strain infected HFF cells
Format: functional, cell-based
Conditions: Homo sapiens

## Nc1nc(O)c2ccn(C3C=CC(CO)C3)c2n1 (configuration not stated)
  pEC50: 3.46
  pIC50: < 3.39
